Assay [1] deals with T-47D cells. Nature of the assay: Caspase cascade activation / induction of apoptosis in T-47D cells (fluorogenic N-(Ac-DEVD)-N'-ethoxycarbonyl-R110 substrate). The class given is cell-based, human. Conditions: Homo sapiens, T47D.
The target in assay [2] is tubulin (Bos taurus, UniProt P81947+Q6B856). Description: Inhibition of tubulin polymerization (DAPI fluorescence). The class given is biochemical. Conditions: MAP-rich tubulin, 30 minutes at 37° C. Here is the method: Lyophilized tubulin (Cytoskeleton #ML113, 1 mg, MAP-rich) was assayed for the effect of the test compound on tubulin polymerization as measured by change in fluorescence for 4′,6-diamidino-2-phenylindole (DAPI) (Barron, D. M. et al. Analytical Biochem., 2003, 315, 49-56). 1 μl of serial dilutions of each test compound (from 100×DMSO stock) was added in 96 well plate format and preincubated for 30 minutes with 94 ul of the non-GTP supplemented tubulin supernatant. 5 μl of DAPI/GTP solution was added to initiate polymerization and incubated for 30 minutes at 37° C. Fluorescence was read with excitation 350 nm, emission wavelength 485 nm on a Tecan Spectraflour Plus. Polymerized tubulin (DMSO and with the tubulin stabilizer Taxol® (paclitaxel)) gives a higher DAPI fluorescence as compared to non-polymerized tubulin (vinblastine and colchicine used to determine baseline).

The test system of assay [3] is P388 murine leukemia cell line. Description: P388 cytotoxicity (ATP-Lite, 72 hours). The class given is cell-based. Conditions: Mus musculus, P388, 72 hours.
[4] abbreviates: T-47D, 24 hr, read-out: T-47D (24 hr) EC50.
[5] abbreviates: Table III, time not given, repeats 24 hr or 48 hr T-47D values of Table I, read-out: Caspase activation (EC50 nM).
[6] abbreviates: T-47D, 48 hr, read-out: T-47D (48 hr) EC50.

Like-named read-outs stand apart in the source and are kept apart here.

Chain of tubulin (P81947 whole entry): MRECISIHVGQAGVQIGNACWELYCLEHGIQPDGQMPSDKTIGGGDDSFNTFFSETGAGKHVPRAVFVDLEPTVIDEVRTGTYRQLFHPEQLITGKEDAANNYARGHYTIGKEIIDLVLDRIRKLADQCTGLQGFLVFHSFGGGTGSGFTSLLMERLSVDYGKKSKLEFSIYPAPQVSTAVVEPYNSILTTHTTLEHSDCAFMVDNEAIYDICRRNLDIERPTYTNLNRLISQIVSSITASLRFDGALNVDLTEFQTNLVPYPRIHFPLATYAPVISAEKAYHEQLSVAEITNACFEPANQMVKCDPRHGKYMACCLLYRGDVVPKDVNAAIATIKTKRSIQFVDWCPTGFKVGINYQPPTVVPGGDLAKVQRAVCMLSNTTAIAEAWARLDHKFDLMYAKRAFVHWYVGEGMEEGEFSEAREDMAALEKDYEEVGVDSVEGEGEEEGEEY
Chain of tubulin (Q6B856 whole entry): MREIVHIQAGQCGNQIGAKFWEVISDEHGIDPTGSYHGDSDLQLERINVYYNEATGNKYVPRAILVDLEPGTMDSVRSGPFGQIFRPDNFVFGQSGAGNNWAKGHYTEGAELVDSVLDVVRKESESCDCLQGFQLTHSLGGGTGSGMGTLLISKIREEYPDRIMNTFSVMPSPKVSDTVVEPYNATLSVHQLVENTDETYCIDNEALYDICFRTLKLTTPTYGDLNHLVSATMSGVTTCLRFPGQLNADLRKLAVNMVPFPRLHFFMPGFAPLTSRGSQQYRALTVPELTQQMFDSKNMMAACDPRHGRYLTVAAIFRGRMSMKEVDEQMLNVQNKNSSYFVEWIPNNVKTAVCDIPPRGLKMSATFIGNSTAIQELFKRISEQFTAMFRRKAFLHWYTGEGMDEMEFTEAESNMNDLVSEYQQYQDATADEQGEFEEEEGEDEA

Consider `Cc1ccc(N(C)c2nc(Cl)nc3ccccc23)cc1` [Example 2, (2-Chloro-quinazolin-4-yl)-(4-methyl-phenyl)-methyl-amine], for which the EC50 in assay [1] (setting [4]) and in assay [1] (setting [5]) was 31 nM each time. In assay [2], this molecule gave a concentration for half-maximal inhibition (IC50) of 3000 nM.

Turning to `COc1ccc(N(C)c2ncnc3c2CCCC3)cc1` [Example 25, (5,6,7,8-Tetrahydro-quinazolin-4-yl)-(4-methoxy-phenyl)-methyl-amine], the EC50 in assay [1] (setting [6]) and in assay [1] (setting [5]) was 42 nM each time. The molecule further showed an IC50 in assay [2] of 2000 nM.

As for `COc1ccc(N(C)c2nc(Cl)nc3ccccc23)c(OC)c1` [Example 41, (2-Chloro-quinazolin-4-yl)-(2,4-dimethoxy-phenyl)-methyl-amine], the EC50 in assay [1] (setting [6]) and in assay [1] (setting [5]) was 20 nM each time. In assay [2], this molecule displayed an IC50 of under 1000 nM.

`COc1ccc(N(C)c2nc(Cl)nc3cc(OC)c(OC)cc23)cc1` [Example 20, (2-Chloro-6,7-dimethoxyquinazolin-4-yl)-(4-methoxy-phenyl)-methyl-amine]: the EC50 in assay [1] (setting [4]) and in assay [1] (setting [5]) was 161 nM throughout. Besides, in assay [2], the IC50 came out at 3000 nM.

Consider `COc1cccc(N(C)c2nc(Cl)nc3ccccc23)c1` [Example 43, (2-Chloro-quinazolin-4-yl)-(3-methoxy-phenyl)-methyl-amine], for which the EC50 in assay [1] (setting [6]) and in assay [1] (setting [5]) was 34 nM in each case. In assay [2], it took 2000 nM to reach half-maximal inhibition (IC50).

Consider `COc1ccc(OC)c(Nc2nc(Cl)nc3ccccc23)c1` [Example 31, (2-Chloro-quinazolin-4-yl)-(2,5-dimethoxy-phenyl)-amine], for which the EC50 in assay [1] (setting [4]) amounted to 317 nM; in assay [1] (setting [6]), 563 nM; in assay [1] (setting [5]), 317 nM. The molecule further displayed an IC50 in assay [2] of 10000 nM.

Consider `COc1ccc(N(C)c2ncnc3ccccc23)cc1` [Example 34, (4-Methoxy-phenyl)-methyl-quinazolin-4-yl-amine], for which the IC50 in assay [2] turned out to be 1000 nM. This lies in the single-digit micromolar range.

`COc1ccc(N(C)c2nc(CN)nc3ccc(Br)cc23)cc1` [Example 219, (2-Aminomethyl-6-bromo-quinazolin-4-yl)-(4-methoxy-phenyl)-methyl-amine] displayed an IC50 in assay [3] of 250 nM.

As to `COc1ccc(N(C)c2nc(N(C)CCO)nc3ccccc23)cc1` [Example 174, 2-({4-[(4-Methoxy-phenyl)-methyl-amino]-quinazolin-2-yl}-methyl-amino)-ethanol], in assay [3], the midpoint of inhibition, the IC50, lay at 22 nM.

In turn, `COc1ccc(N(C)c2nc(N(C)C)nc3ccccc23)cc1OC` [Example 168, N^4-(3,4-Dimethoxy-phenyl)-N^2,N^2,N^4-trimethyl-quinazoline-2,4-diamine] gave a concentration for half-maximal inhibition (IC50) in assay [3] of 45 nM.

`CCOc1ccc(N(C)c2nc(C)nc3ccc([N+](=O)[O-])cc23)cc1` [Example 207, (4-Ethoxy-phenyl)-methyl-(2-methyl-6-nitro-quinazolin-4-yl)-amine] came in with an IC50 in assay [3] of 17 nM.

With `COc1ccc(N(C)c2nc(CN)nc3ccc(N)cc23)cc1` [Example 213, 2-Aminomethyl-N4-(4-methoxy-phenyl)-N4-methyl-quinazoline-4,6-diamine], the concentration for half-maximal inhibition (IC50) in assay [3] came to 170 nM.

`COc1ccc(N(C)c2nc(NCCN)nc3ccccc23)cc1` [Example 145, N^2-(2-Amino-ethyl)-N^4-(4-methoxy-phenyl)-N^4-methyl-quinazoline-2,4-diamine]: the IC50 in assay [3] worked out at 38 nM.

For the molecule `COc1ccc(N(C)c2nc(C)nc3ccc(N)cc23)cc1F` [Example 215, N^4-(3-Fluoro-4-methoxy-phenyl)-2,N^4-dimethyl-quinazoline-4,6-diamine], the IC50 in assay [3] worked out at 3 nM.

In assay [3], `COc1ccc(N(C)c2nc(C)nc3ccc(CN)cc23)cc1` [Example 259, (6-Aminomethyl-2-methyl-quinazolin-4-yl)-(4-methoxy-phenyl)-methyl-amine] gave an IC50 of 773 nM. This IC50 lies about 260-fold higher than the previous one.

`COc1ccc(N(C)c2nc(C(C)(C)C#N)nc3ccccc23)cc1` [Example 231, 2-{4-[(4-Methoxy-phenyl)-methyl-amino]-quinazolin-2-yl}-2-methyl-propionitrile] gave an IC50 in assay [3] of 37 nM.

Usually EC50 stands for the concentration that produces a half-maximal response. The term IC50 denotes the concentration that inhibits the measured activity by half.

The record behind these values is patent US20130029942A1, “COMPOUNDS AND THERAPEUTICAL USES THEREOF” (Myrexis, Inc., priority 2003, published 2013).
